We go through nine molecules from US9980937B2, “Therapeutic agent for Alzheimer's disease” (NAGASAKI UNIVERSITY, priority 2014, dated 2018).

The test system of one data set is neprilysin. Kind of data set: neprilysin-dependent neutral endopeptidase activity of APP-H4 cell extract (suc-AAF-AMC coupled enzyme assay). The class given is cell-based, human. As to conditions: APP-H4 cells, 48 hr, 1 or 10 μM; activity without polyphenol derivative = 1 (FIG. 1). As for the experimental part: (§1) APP-H4 cells were seeded to a 6-well plate at a density of 12×10^4 cells/1.5 mL, and cultured in Dulbecco's modified Eagle's medium (DMEM; Nacalai Tesque, Inc.) added with 10% fetal bovine serum (FBS; Equitech-Bio, Inc. [Kerrville, Tex., USA]), 100 U/mL penicillin+100 μg/mL streptomycin (Nacalai Tesque, Inc.). After culture for 24 hr, the culture supernatant was removed, and the medium was exchanged with a medium with reduced use amount of serum, Opti-MEM (registered trade mark) I Reduced Serum Medium (Life Technologies Corporation, Carlsbad, Calif., USA) (1 mL). A polyphenol derivative (1 μL) to be the test target was added, and the mixture was further cultured for 48 hr. After culture, the culture supernatant was recovered in a tube (total amount 1.5 mL), centrifuged at 4,000×g/4° C./10 min to remove dead cells, and the supernatant (800 μL) was placed in a new tube. The culture supernatant was preserved at −80° C. before sample preparation. The cells were washed twice with ice-cooled phosphate-buffered saline (PBS). Thereafter, the cells were scraped from the plate using a Cell Scraper. The cells were recovered in a 1.5 mL tube and centrifuged at 4,000×g/4° C./10 min. The supernatant was removed and the cells were preserved at −80° C. before sample preparation. The frozen cells were lysed in 40 μL of solubilization buffer containing 1% Triton X-100, protease inhibitor cocktail Complete™ EDTA-free (Roche) and 50 mM Tris-HCl on ice. The cell lysate was incubated on ice for 60 min, centrifuged at 4° C., 21,900×g for 30 min, and the supernatant was recovered and used as a solubilization cell extract.
The total protein concentration of the cell extract was determined by a BCA protein assay kit (Takara) by using BSA as the standard solution. The final concentration of the test compound used was 1 μM or 10 μM, and quantification was performed using each solvent as a control.
The neprilysin-dependent neutral endopeptidase activity of the cell extract was measured fluorescence quantitatively by an indirect coupled enzyme assay method. […] Total 50 μL of the reaction mixture was prepared such that the final concentration was substrate 0.1 mM suc-AAF-AMC, protein in the cell extract 1-6 μg, 100 mM MES buffer (pH 6.5). With the time of addition of the substrate as the start of the reaction, the mixture was reacted at 37° C. for 1 hr, and Phe-AMC was cut out from the substrate by neutral endopeptidase. […] The mixture was reacted at 37° C. for 30 min, and Phe (phenylalanine) residue was cut out from Phe-AMC by aminopeptidase.

The conditions of data set [1]: coefficient of partition for octanol, in accordance with Fudouji et al. 2009; cited from earlier work.
The test system of data set [2] is neprilysin mRNA (MME gene). Kind of data set: neprilysin mRNA expression (quantitative real-time PCR, MME gene). Format: cell-based, human. The following applies: standardized to GAPDH mRNA (FIG. 3). As for the experimental part:
(§2) In the same manner as in the above-mentioned 2, total RNA was prepared using a High Pure RNA Isolation kit (Roche 11828665001) from the cells to be the test target cells, which were treated with each polyphenol derivative and cultured, and subjected to a reverse transcription reaction using PrimeScript RT-PCR kit (TaKaRaRR014A) to give a sample (cDNA) for real-time PCR.
(§3) The prepared sample, Premix Ex taq (Perfect Real Time) (TaKaRaRR039A) and a probe, and a primer were mixed in a tube (TaKaRa SC910A), and real-time PCR reaction (initial denaturation: 95° C. 30 sec, PCR reaction: 95° C. 5 sec, 60° C. 20 sec, 40 times) was performed by Smart Cycler II System machine (TaKaRa).
(§4) The 5′-terminus of the probe was modified by a fluorescent substance FAM, and the 3′-terminus was modified by a quencher substance TAMRA, respectively.
A general note: Real-time PCR tracks product formation cycle by cycle.

The test system of a further data set is ADAM17. The experiment in a line: α-secretase mRNA expression, ADAM17 (real-time PCR). The class given is cell-based, human. As to conditions: control = 1. The protocol: as §2, §3, §4
The test system of data set [3] is neprilysin, α-secretase, β-secretase. Kind of data set: overall conclusion on modulation of neprilysin, α-secretase and β-secretase (Example 1). The following applies: conclusion from the results of Example 1. The class given is cell-based, human. As for the experimental part: as §1
The neprilysin-dependent neutral endopeptidase activity of the cell extract was measured fluorescence quantitatively by an indirect coupled enzyme assay method. As a neutral endopeptidase substrate, succinyl-Ala-Ala-Phe-7-amino-4-methylcoumarin (suc-AAF-AMC) (1-1315; Bachem) was used. Total 50 μL of the reaction mixture was prepared such that the final concentration was substrate 0.1 mM suc-AAF-AMC, protein in the cell extract 1-6 μg, 100 mM MES buffer (pH 6.5). With the time of addition of the substrate as the start of the reaction, the mixture was reacted at 37° C. for 1 hr, and Phe-AMC was cut out from the substrate by neutral endopeptidase. Then, to the reaction mixture was added a solution (2.5 μL) containing 0.1 mg (0.4 unit equivalent)/mL leucine aminopeptidase (L-5006; Sigma-Aldrich), and 0.2 mM phosphoramidon (4082; Peptide Institute). The mixture was reacted at 37° C. for 30 min, and Phe (phenylalanine) residue was cut out from Phe-AMC by aminopeptidase. Using microplate spectrometer Infinite M-1000 (Tecan), the fluorescence intensity of free AMC was measured by measuring at an excitation wavelength 390 nm and a fluorescence wavelength 460 nm on a half-well size 96-well black plate (#3695; Corning). The neprilysin-dependent neutral endopeptidase activity was determined based on a decrease in the activity due to 10 μM thiorphan (T-6031; Sigma-Aldrich) as a neprilysin specific inhibitor.
After thawing from −80° C., the aforementioned culture supernatant was mixed with 6×SDS-polyacrylamide gel electrophoresis (SDS-PAGE) sample buffer (Nacalai Tesque, Inc.) at a ratio of 5:1, boiled for 5 min, and used as a detection sample of APPsα which is a metabolite of APP by α-secretase and APPsβ which is a metabolite of APP by β-secretase in western blot analysis. […]

Turning to `O=C(O[C@@H]1Cc2c(O)cc(O)cc2O[C@@H]1c1cc(O)c(O)c(O)c1)c1cc(O)c(O)c(O)c1` [EGCg, (−)-epigallocatechin-3-O-gallate, reference compound], in the data set on neprilysin, the “neprilysin activity potentiating action” value is given as “about 1.5 times that of control”. The “log P octanol” value in data set [1] is recorded as 1.00.

On to `CC12CC[C@@H](C(C)(C)O)[C@H](C1)c1c(cc(O)c3c1O[C@H](c1cc(O)c(O)c(O)c1)[C@H](OC(=O)c1cc(O)c(O)c(O)c1)C3)O2` [NUP-6], for which, in data set [1], the “log P octanol” value was 1.85.

Consider `C=CCc1ccc(O)c(-c2ccc(O)c(CC=C)c2)c1` [Honokiol], for which, in the data set with neprilysin, the “neprilysin activity potentiating action” value was “about 1.3 times that of control”.

On to Amentoflavone, for which the “neprilysin activity potentiating action” value in the data set on neprilysin is “about 2 times that of control”.

In the case of `O=c1c(O)c(-c2ccc(O)cc2)oc2cc(O)cc(O)c12` [Kaempferol], the “neprilysin activity potentiating action” value with neprilysin is on record as “about 1.5 times that of control”.

With `O=c1cc(-c2ccc(O)cc2)oc2cc(O)cc(O)c12` [Apigenin], the “neprilysin activity potentiating action” value in the data set with neprilysin is reported as “about 1.5 times that of control”.

As for `O=c1cc(-c2ccccc2)oc2cc(O)c(O)c(O)c12` [Baicalein], the “neprilysin activity potentiating action” value in the data set on neprilysin is “about 1.7 times that of control”.

Take `O=c1cc(-c2ccccc2)oc2cc(O)cc(O)c12` [Chrysin]: the “neprilysin activity potentiating action” value with neprilysin is “about 1.4 times that of control”.

In the case of `O=C(O)CCCCCCCCCCCCCCOC1CCc2c(c3c(c4c2O[C@H](c2cc(O)c(O)c(O)c2)[C@H](OC(=O)c2cc(O)c(O)c(O)c2)C4)OC(OCCCCCCCCCCCCCCC(=O)O)CC3)O1` (stereo partly shown) [NUP-E15-2], in data set [2], the “expression level of neprilysin at the mRNA level” value is “about 7.9 times that of control”. In the data set with ADAM17, the “ADAM17 expression at the mRNA level” value was “about 3.7 times that of control”. In addition, the “modulator class (neprilysin / α-secretase / β-secretase)” value in data set [3] was “triple modulator”. In addition, the “neprilysin activity potentiating action” value with neprilysin is on record as “about 1.5 times that of control”.
